From patent US20240043927A1, “METHOD FOR IDENTIFYING SUBSTANCE CAPABLE OF AFFECTING AGING” (ZHEJIANG BAISHOUKANGDI CO., LTD., priority 2019, published 2024)

Key:
[1] = test system: Zip11; assay: Zip11 mRNA expression in human cells treated with vitamins; format: cell-based; conditions: Human HEK293 and HT1080 cells, treated 24 hours; vitamin B3 10, 50, 100 μM; vitamin B12 1, 10, 50 μM; vitamin C 10, 100, 500 μM
Experimental: Human HEK293 and HT1080 cells were treated for 24 hours respectively at different concentrations of vitamin B3 (10 μM, 50 μM, 100 μM), vitamin B12 (1 μM, 10 μM, 50 μM) and vitamin C (10 μM, 100 μM, 500 μM). The relative expression quantity of Zip11 mRNA was detected.

[2] = test system: ZIP11; assay: ZIP11 expression in liver of wild-type mice injected with concanavalin A (RT-PCR); format: in vivo, mouse; conditions: wild-type C57BL/6 mice, 10 mg/kg through the tail vein, after 18 hours
Experimental: The wild-type C57BL/6 mice were divided into two groups. An experimental group was injected with 10 mg/kg concanavalin (ConA) through the tail vein.

Compound | relative expression quantity of Zip11 mRNA [1] | expression level of ZIP11 in liver tissue (RT-PCR, β-actin as reference) [2]
O=C(O)c1cccnc1 [vitamin B3] | increase the expression level of Zip11 | –
O=C1O[C@H]([C@@H](O)CO)C(O)=C1O [vitamin C] | increase the expression level of Zip11 | –
Concanavalin A [ConA] | – | decrease the level of ZIP11
vitamin B12 | increase the expression level of Zip11 | –
